PubChem BioAssay (NCI)
Where “and” joins values, the source holds several entries; their conditions need not be identical. Identical values can stand only once.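 Five concentrations, 48 hours, 96-well plates. GI50 marks 50% less growth. TGI marks complete inhibition of growth.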

Columns and labels:
Assay in all cases: NCI-60 cell line screen, 48 h
786-0 renal = system: 786-0 renal
A549 NSCLC = system: A549 NSCLC
HCC-2998 colon = system: HCC-2998 colon
HT29 colon = system: HT29 colon
IGROV1 ovarian = system: IGROV1 ovarian
MOLT-4 leukemia = system: MOLT-4 leukemia
NCI-H460 lung = system: NCI-H460 lung
OVCAR-3 ovarian = system: OVCAR-3 ovarian
PC-3 prostate = system: PC-3 prostate
SF-539 CNS = system: SF-539 CNS

Compound	GI50 (786-0 renal)	TGI (786-0 renal)	GI50 (A549 NSCLC) [µM]	TGI (A549 NSCLC)	GI50 (HCC-2998 colon)	TGI (HCC-2998 colon)	GI50 (HT29 colon) [µM]	TGI (HT29 colon) [µM]	GI50 (IGROV1 ovarian)	TGI (IGROV1 ovarian)	GI50 (MOLT-4 leukemia)	TGI (MOLT-4 leukemia)	GI50 (NCI-H460 lung) [µM]	TGI (NCI-H460 lung)	GI50 (OVCAR-3 ovarian)	TGI (OVCAR-3 ovarian)	GI50 (PC-3 prostate) [µM]	TGI (PC-3 prostate)	GI50 (SF-539 CNS) [µM]	TGI (SF-539 CNS)
NC(N)=N/N=C/c1cccc(Cl)c1Cl	11.1 µM	24.7 µM	7.51	21.9 µM	1.73 µM	3.47 µM	2.31	5.98	11 µM	25.6 µM	6.13 µM	23.9 µM	3.76	14.7 µM	4.55 µM	14.9 µM	10.8	23.6 µM	15.6	31.2 µM
CC(C)c1cc(CNc2nc(Nc3cc(C4CC4)[nH]n3)cc(N3CCN(C)CC3)n2)on1	1.43 µM and 0.223 µM	> 10 µM and 3.72 µM		> 10 µM and 11.8 µM	2.79 µM and 0.343 µM	> 10 µM and 6.39 µM			0.462 µM and 0.175 µM	4.94 µM and 7.13 µM	2.71 µM and 0.477 µM	> 10 µM and 8.44 µM		> 10 µM and 1.42 µM	2.14 µM and 0.256 µM	> 10 µM and 4.1 µM		> 10 µM and 7.02 µM		> 10 µM and 1.02 µM
CCOC(=O)C1=C(NC(C)(C)C)OCC1=O		> 100 µM		> 100 µM		> 100 µM		> 100		> 100 µM		> 100 µM		> 100 µM		> 100 µM				> 100 µM
Fc1ccc(F)c(C2SCc3nc4ccccc4n32)c1 (centres undefined)		> 100 µM		> 100 µM		> 100 µM		> 100		> 100 µM		91.6 µM		> 100 µM		> 100 µM				> 100 µM
C[C@H]1COC2(c3ccccc3)CCC(=O)N12 (some centres undefined)		> 100 µM		> 100 µM				> 100		> 100 µM				> 100 µM		> 100 µM				> 100 µM
COc1ccc(OC)c(-c2cc(-c3ccccc3)nn2-c2ccc(S(N)(=O)=O)cc2)c1	11.9 µM	24.6 µM	13.1	42.6 µM	23 µM	37.9 µM			23.3 µM	> 100 µM	6.44 µM	> 100 µM	11	77.3 µM	5.91 µM	19 µM	12.2	28 µM	18.7	36.6 µM
CCCCSCc1nc2nc(Cl)c(Cl)nc2[nH]1		69.3 µM		> 100 µM				> 100		> 100 µM		45.5 µM		53.8 µM		36.7 µM		> 100 µM		> 100 µM
CC1CCCN(CC(O)CN2CCCc3ccccc32)C1 (centres undefined)		> 100 µM		> 100 µM				> 100		> 100 µM		> 100 µM				> 100 µM		> 100 µM		
CCOC(=O)c1cc2cc(NC(=O)c3cc4cc([N+](=O)[O-])ccc4n3C)ccc2n1C	17.6 µM	31.9 µM	21.7	55.6 µM			24.9	> 100	> 100 µM	> 100 µM	30.9 µM	> 100 µM	30.6	> 100 µM	31.7 µM	> 100 µM	22.6	52.9 µM		
CC12CCc3ccccc3C1=Nc1ccccc12 (centres undefined)		> 100 µM		> 100 µM				> 100		> 100 µM		58.5 µM		> 100 µM		66.5 µM		> 100 µM		78.5 µM
CC1=Nc2c([nH]c(=S)[nH]c2=O)NC(c2ccc(Cl)c(Cl)c2)C1 (centres undefined)		32.5 µM		47.5 µM		32 µM		59.6		40.8 µM		> 100 µM		> 100 µM		38.3 µM				46.5 µM
COc1cc(OC)c(OC)cc1/C=C1\C=Cc2ccccc21		> 100 µM		> 100 µM		28.4 µM		> 100		> 100 µM		44.4 µM		38 µM				> 100 µM		35.8 µM
COc1ccc(CCNCc2cccc(OC)c2OC)cc1OC		> 100 µM		> 100 µM		> 100 µM		> 100		> 100 µM		> 100 µM		> 100 µM		> 100 µM				
CN(/N=C/c1ccnc2ccccc12)c1ccc([N+](=O)[O-])cc1[N+](=O)[O-]		74.6 µM		> 100 µM		> 100 µM		> 100		> 100 µM		> 100 µM		> 100 µM		> 100 µM				> 100 µM
O=C1OC(c2ccccc2)=N/C1=C\c1c(O)cc(O)cc1O		> 100 µM		> 100 µM				> 100		> 100 µM		> 100 µM				> 100 µM				> 100 µM
CCOC(=O)c1c(C)n(CC(C)C)c2c1cc1oc(=O)c(=O)n3cnc2c13	20.1 µM	> 50 µM	15.7	> 50 µM			17.2	> 50	15.1 µM	> 50 µM	15.8 µM	> 50 µM	16.7	> 50 µM	11.2 µM	25.9 µM	24.6	> 50 µM	15.6	42 µM
O=C(O)C(Br)C(Br)c1ccccc1[N+](=O)[O-] (centres undefined)		> 100 µM		> 100 µM		> 100 µM		> 100		> 100 µM				> 100 µM		> 100 µM		> 100 µM		> 100 µM
CCN(CC)CCCCCOc1cc(O)c2c(=O)cc(-c3ccccc3)oc2c1	1.97 µM	3.81 µM	5.26	18.5 µM	0.386 µM	2.35 µM	2.21	5.5	2.08 µM	4.87 µM	3.76 µM	11.2 µM	2.24	5.48 µM	1.93 µM	4.94 µM			2.43	6.01 µM
COc1ccc(/C(Cl)=C(\C=O)c2ccc(Br)cc2)cc1OC		> 100 µM		> 100 µM		> 100 µM		> 100		> 100 µM		> 100 µM		> 100 µM		> 100 µM				67.1 µM
